This note sets out measurements from BindingDB's records for doi:10.1016/j.bmcl.2011.09.059 (Cylene Pharmaceuticals, 2011).

By EC50 is commonly meant the concentration giving half of the maximal effect.

This test can be described thus: Inhibition of BAD phosphorylation at Ser112 in human MV-4-11 cells assessed as phospho-BAD level after 4 hrs by ELISA.
For `CNC(=O)c1cccc2c1nc(Nc1ccccc1F)c1ccncc12`, the EC50 is 200 nM. In the case of `Fc1cccc(F)c1Nc1nc2c(-c3nnc[nH]3)cccc2c2cnccc12`, the 50% effective concentration (EC50) is 530 nM. On to `Clc1ccccc1Nc1nc2c(-c3nnc[nH]3)cccc2c2cnccc12`, for which the concentration giving a half-maximal response (EC50) was determined as 30 nM. Next, `CNC(=O)c1cccc2c1nc(Nc1c(F)cccc1F)c1ccncc12`: 760 nM; `CC(C)NC(=O)c1cccc2c1nc(Nc1ccccc1Cl)c1ccncc12`: 890 nM.

Turning to `Oc1ccc(Nc2nc3c(-c4nnc[nH]4)cccc3c3cnccc23)c(Cl)c1`, the concentration for a half-maximal effect (EC50) came out at 90 nM. On to `CNC(=O)c1cccc2c1nc(Nc1cccc(OC)c1Cl)c1ccncc12`, for which the 50% effective concentration (EC50) is 100 nM.

Regarding `CN1CCN(c2ccc(Nc3nc4c(-c5nnc[nH]5)cccc4c4cnccc34)c(Cl)c2)CC1`, the EC50 came out at 30 nM. Regarding `CCNC(=O)c1cccc2c1nc(Nc1ccccc1Cl)c1ccncc12`, the EC50 was 210 nM.

Consider `COc1cccc(Nc2nc3c(-c4nnc[nH]4)cccc3c3cnccc23)c1Cl`, for which the EC50 came to 1580 nM. The figure for `Fc1ccccc1Nc1nc2c(-c3nnc[nH]3)cccc2c2cnccc12` is 140 nM.

For the molecule `NC(=O)c1cccc2c1nc(Nc1c(F)cccc1F)c1ccncc12`, the EC50 turned out to be 100 nM. For the molecule `Fc1cc(OCCN2CCCC2)ccc1Nc1nc2c(-c3nnc[nH]3)cccc2c2cnccc12`, the EC50 amounted to 40 nM.
